# In patent US9884854B2, “N-[(pyrimidinylamino)propanyl]-and N[(pyrazinylamino)proppanyl]arylcarboxamides” (Boehringer Ingelheim International GmbH, priority 2016, dated 2018):
# Target: T1, human orexin 2 receptor (Homo sapiens, UniProt O43614)
# T1 construct: stably expressing the full-length human orexin 2 receptor and the aequorin photoprotein; expressed in transfected cells; host or cells: CHO-K1 (CHO-K1/hOx2), co-expressing aequorin
# T1 sequence (O43614 1-444): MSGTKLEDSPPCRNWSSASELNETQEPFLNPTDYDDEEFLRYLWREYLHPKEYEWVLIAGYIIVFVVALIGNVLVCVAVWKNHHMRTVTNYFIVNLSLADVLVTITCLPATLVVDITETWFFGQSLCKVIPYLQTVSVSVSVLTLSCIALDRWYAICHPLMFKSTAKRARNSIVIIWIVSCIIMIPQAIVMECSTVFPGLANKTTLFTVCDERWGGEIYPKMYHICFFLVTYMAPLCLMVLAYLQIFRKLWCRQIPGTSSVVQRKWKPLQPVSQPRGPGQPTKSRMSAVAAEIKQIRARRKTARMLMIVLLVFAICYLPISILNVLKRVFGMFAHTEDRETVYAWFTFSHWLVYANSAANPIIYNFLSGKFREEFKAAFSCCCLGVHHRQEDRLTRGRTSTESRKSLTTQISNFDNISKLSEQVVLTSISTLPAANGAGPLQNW
# Experiment: Assay B: OX2R IP1 (in vitro OX2R potency)
# Assay type: cell-based
# Details: 0.5 nM Orexin A concentration
# Source text: Activation of the orexin receptors expressed in cell lines results in an increase in intracellular IP3 concentration. IP1, a downstream metabolite of IP3, accumulates in cells following receptor activation and is stable in the presence of LiCl. Using Homogeneous Time-Resolved Fluorescence technology with Lumi4-Tb cryptate (commercially available from Cisbio Bioassay.) and a suitable fluorescence plate reader. […] Chem. Genomics 2009, 3, 22-32. This technique is used to characterize pharmacological modification of the orexin receptors.
# B. In Vitro Testing of OX2R Potency: OX2R IP1
# IP1 measurements are performed in CHO-K1 cells stably expressing the full-length human orexin 2 receptor and the aequorin photoprotein. Cells are cultivated in Ham's nutrient mixture F12 medium with 10% fetal calf serum, in a 37° C., 95% humidity and 5% CO2 incubator. The CHO-K1/hOx2 cell mass is expanded to larger cell numbers. The cells are obtained as frozen cells in cryo-vials and stored until use at −150° C. The viability of the cells after thawing is >90%. In preparation for the assay, 24 hours before the assay, the cells are thawed at 37° C. and immediately diluted with cell culture medium. After centrifugation, the cell pellet is resuspended in medium and then distributed into the assay plates with a density of 5000 cells/25 μL per well. The plates are incubated for one hour at room temperature to reduce edge effects before they are incubated for 24 hours at 37° C./5% CO2. Compounds are prepared by a 8-point serial dilution in DMSO and a final dilution step into assay buffer (HBSS with 20 mM HEPES, 0.1% BSA and 50 mM LiCl, pH 7.4) to ensure a final DMSO concentration of 1% in the assay. On the day of the assay, cells in the plate are washed twice with 60 μL assay buffer (20 μL buffer remained in the wells after washing), followed by adding 5 μL per well of compounds diluted in assay buffer. After 15 minutes of incubation at room temperature 5 μL per well of Orexin A peptide (final concentration: 0.5 nM) dissolved in assay buffer is added to the assay plate. The assay plate is incubated for 60 minutes at 37° C. Then 5 μl per well of Anti-IP1-Cryptate Tb solution and 5 μl per well of IP1-d2 dilution are added to all well of the plate and the plate is incubated for a further 60 minutes light protected at room temperature. The emission at 615 nm and 665 nm (Excitation wavelength: 320 nm) are measured using an EnVision reader (PerkinElmer). The ratio between the emission at 665 nm and 615 is calculated by the reader.
# 8-point four parametric non-linear curve fitting and determination of IC50 values and Hill slopes is performed using a regular analysis software e.g. AssayExplorer (Accelrys). In order to establish an agonist concentration independent parameter, Kb values are calculated using the following equation: IC50/((2+(A/EC50)n)^1/n−1) (with A=concentration agonist, EC50=EC50 agonist, n=Hill slope agonist) (see P. Leff, I. G. Dougall, Trends Pharmacol. Sci. 1993, 14(4), 110-112).
# Kb values from Assay A (OX1R) and Assay B (OX2R) can then provide a selectivity ratio which is independent of the agonist (Orexin A) concentration.
row,Structure (SMILES),Kb [nM]
1,CCN(C(=O)c1ccccc1-n1nccn1)[C@@H](C)CNc1ncc(C(F)(F)F)cn1 [Example 1],19.4
2,CCN(C(=O)c1cnc(C)nc1-c1ccccc1)[C@@H](C)CNc1ncc(C(F)(F)F)cn1 [Example 17],54
3,CCN(C(=O)c1cccc(F)c1-n1nccn1)[C@@H](C)CNc1ncc(C(F)(F)F)cn1 [Example 18],18
4,CCN(C(=O)c1nc(C)ccc1-n1nccn1)[C@@H](C)CNc1ncc(C(F)(F)F)cn1 [Example 9],32.9
